Here are results for 22 compounds from patent publication US10052320B2, “Substituted quinoxalines as FGFR kinase inhibitors” (ASTEX THERAPEUTICS LIMITED, priority 2011, dated 2018).

Data set [1] has as its target Ba/F3-KDR-transfected cells (Homo sapiens, UniProt P35968). The data set is described as follows: Ba/F3-KDR (minus IL3) cellular proliferation assay, Alamar Blue. In kind it is cell-based. To be noted: minus IL3. As for the experimental part: Ba/F3-KDR (Minus IL3 or Plus IL3) (Cellular Proliferation Assay)
(§1) In a 384 well plate, 100 nl of compound dilution in DMSO was sprayed before adding 50 μl cell culture medium (phenol red free RPMI-1640, 10% FBS, 2 mM L-Glutamine and 50 μg/ml Gentamycin) containing 20000 cells per well of Ba/F3-KDR-transfected cells. Cells were put in an incubator at 37° C. and 5% CO2. After 24 hours, 10 μl of Alamar Blue solution (0.5 mM K3Fe(CN)6, 0.5 mM KaFe(CN)6, 0.15 mM Resazurin and 100 mM Phosphate Buffer) was added to the wells, incubated for 4 hours at 37° C. and 5% CO2 before RFU's (Relative Fluorescence Units) (ex. 540 nm., em. 590 nm.) were measured in a flurorescence plate reader.
As a counterscreen the same experiment was performed in the presence of 10 ng/ml murine IL3.
as §1, with “a 96” for “a 384”, “plate, 180” for “plate, 100 nl of compound dilution in DMSO was sprayed before adding 50”, “containing 10000” for “containing 20000”, “Ba/F3-KDR-transfected cells were pipette and 20 μl of compound dilution in DMSO was added.” for “Ba/F3-KDR-transfected cells.”, “hours, 40” for “hours, 10”, “CO2” for “CO2 before”
(In general: Resazurin is reduced to fluorescent resorufin, in cell work by metabolically active cells.)

In data set [2] the target is KDR (h) (VEGFR2) (Homo sapiens, UniProt P35968). The data set is described as follows: KDR (VEGFR2) (enzymatic assay), TR-FRET. In kind it is biochemical. On the procedure:
KDR (VEGFR2) (Enzymatic Assay)
In a final reaction volume of 30 μL, KDR (h) (150 ng/ml) was incubated with 50 mM HEPES pH 7.5, 6 mM MnCl2, 1 mM DTT, 0.1 mM Na3VO4, 0.01% Triton-X-100, 500 nM Btn-Flt3 and 3 μM ATP in the presence of compound (1% DMSO final). After incubation for 120 minutes at room temperature the reaction was stopped with 2.27 nM EU-anti P-Tyr, 7 mM EDTA, 31.25 nM SA-XL-665 and 0.02% BSA which was present for 60 minutes at room temperature. Time-Resolved Fluorescence Resonance Energy Transfer (TR-FRET) signal (ex340 nm. Em 620 nm, em 655 nm) was measured afterwards and results are expressed in RFU (Relative Fluorescence Units).
In general terms: TR-FRET usually uses a lanthanide donor and a delayed reading to cut background.

Data set [3] concerns the target T1, Ba/F3-Flt3-transfected cells (Homo sapiens, UniProt P36888, cells depend on it, form not given).
T1 sequence (P36888 1-993): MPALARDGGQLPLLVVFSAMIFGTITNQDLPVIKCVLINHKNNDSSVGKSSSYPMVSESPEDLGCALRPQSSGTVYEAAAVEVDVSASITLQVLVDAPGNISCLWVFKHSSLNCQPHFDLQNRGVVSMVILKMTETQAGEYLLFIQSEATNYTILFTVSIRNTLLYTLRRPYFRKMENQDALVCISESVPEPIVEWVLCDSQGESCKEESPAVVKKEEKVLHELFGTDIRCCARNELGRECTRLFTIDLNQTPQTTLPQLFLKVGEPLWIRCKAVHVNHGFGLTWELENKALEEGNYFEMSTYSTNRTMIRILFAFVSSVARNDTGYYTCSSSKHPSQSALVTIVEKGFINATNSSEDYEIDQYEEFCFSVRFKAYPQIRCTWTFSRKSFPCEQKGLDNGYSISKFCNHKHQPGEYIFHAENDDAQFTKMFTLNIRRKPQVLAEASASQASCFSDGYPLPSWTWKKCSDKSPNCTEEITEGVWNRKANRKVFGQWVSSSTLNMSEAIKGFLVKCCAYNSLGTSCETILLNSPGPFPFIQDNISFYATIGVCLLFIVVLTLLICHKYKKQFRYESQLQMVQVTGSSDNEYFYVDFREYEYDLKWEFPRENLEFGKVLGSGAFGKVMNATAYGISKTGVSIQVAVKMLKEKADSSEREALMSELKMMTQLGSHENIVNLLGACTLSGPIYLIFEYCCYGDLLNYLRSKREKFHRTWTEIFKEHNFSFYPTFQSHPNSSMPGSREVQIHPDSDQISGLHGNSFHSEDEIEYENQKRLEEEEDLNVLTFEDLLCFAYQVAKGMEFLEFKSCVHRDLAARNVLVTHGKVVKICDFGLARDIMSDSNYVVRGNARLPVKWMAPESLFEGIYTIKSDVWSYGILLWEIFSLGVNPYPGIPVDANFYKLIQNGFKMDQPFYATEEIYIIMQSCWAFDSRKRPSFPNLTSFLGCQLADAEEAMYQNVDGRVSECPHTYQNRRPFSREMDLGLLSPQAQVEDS
The data set can be described thus: Ba/F3-Flt3 (minus IL3) cellular proliferation assay, Alamar Blue. In kind it is cell-based. To be noted: minus IL3. As for the experimental part:
Ba/F3-Flt3 (Minus IL3 or Plus IL3) (Cellular Proliferation Assay)
Cells were put in an incubator at 37° C. and 5% CO2. After 24 hours, 10 μl of Alamar Blue solution (0.5 mM K3Fe(CN)6, 0.5 mM KaFe(CN)6, 0.15 mM Resazurin and 100 mM Phosphate Buffer) was added to the wells, incubated for 4 hours at 37° C. and 5% CO2 before RFU's (Relative Fluorescence Units) (ex. 540 nm., em. 590 nm.) were measured in a flurorescence plate reader. […]
as §1, with “a 96” for “a 384”, “plate, 180” for “plate, 100 nl of compound dilution in DMSO was sprayed before adding 50”, “containing 10000” for “containing 20000”, “of Ba/F3-Flt3-transfected cells were pipette and 20 μl of compound dilution in DMSO was added.” for “of Ba/F3-KDR-transfected cells.”, “hours, 40” for “hours, 10”

Usually melting point stands for the temperature, or range, at which the solid turns liquid. As usually defined, the IC50 is the concentration at which inhibition is half-maximal. A low value points to inhibition by little substance.

Where a name gives a salt, the structure may show the parent alone.

Chain of Ba/F3-KDR-transfected cells (P35968 whole entry, change not shown): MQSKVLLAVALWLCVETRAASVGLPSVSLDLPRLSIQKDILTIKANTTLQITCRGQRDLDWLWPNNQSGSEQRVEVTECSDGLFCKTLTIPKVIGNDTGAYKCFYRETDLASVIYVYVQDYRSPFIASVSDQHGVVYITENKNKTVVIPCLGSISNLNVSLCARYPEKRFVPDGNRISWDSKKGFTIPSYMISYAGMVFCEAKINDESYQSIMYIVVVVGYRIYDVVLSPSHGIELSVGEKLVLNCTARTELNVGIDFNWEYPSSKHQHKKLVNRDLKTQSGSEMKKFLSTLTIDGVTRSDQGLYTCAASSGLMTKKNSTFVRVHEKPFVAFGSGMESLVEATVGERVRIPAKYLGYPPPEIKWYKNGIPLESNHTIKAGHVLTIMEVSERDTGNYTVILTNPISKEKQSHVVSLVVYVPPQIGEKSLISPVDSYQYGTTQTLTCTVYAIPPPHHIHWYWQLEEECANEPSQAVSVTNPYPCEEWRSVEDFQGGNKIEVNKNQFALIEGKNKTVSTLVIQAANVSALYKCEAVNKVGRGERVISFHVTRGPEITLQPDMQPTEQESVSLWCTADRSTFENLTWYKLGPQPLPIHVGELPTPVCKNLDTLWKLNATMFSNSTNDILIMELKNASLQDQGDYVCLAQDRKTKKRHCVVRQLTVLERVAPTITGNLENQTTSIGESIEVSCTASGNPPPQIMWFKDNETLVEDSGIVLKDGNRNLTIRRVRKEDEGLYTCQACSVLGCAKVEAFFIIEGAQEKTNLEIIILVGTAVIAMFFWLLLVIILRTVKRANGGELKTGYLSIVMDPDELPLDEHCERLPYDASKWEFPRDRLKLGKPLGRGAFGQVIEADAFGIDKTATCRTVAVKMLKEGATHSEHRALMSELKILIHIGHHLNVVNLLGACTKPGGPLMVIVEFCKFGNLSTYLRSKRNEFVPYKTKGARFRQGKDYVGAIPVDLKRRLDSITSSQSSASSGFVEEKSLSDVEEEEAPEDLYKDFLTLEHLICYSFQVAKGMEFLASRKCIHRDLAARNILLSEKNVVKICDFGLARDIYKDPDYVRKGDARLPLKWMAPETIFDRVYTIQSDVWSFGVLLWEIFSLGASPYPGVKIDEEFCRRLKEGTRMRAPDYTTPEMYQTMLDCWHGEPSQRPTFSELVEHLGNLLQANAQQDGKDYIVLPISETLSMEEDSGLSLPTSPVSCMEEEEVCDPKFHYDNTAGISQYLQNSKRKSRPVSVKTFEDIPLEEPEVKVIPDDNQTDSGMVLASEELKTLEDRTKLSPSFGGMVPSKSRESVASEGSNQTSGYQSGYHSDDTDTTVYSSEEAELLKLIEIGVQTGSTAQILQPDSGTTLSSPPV
Chain of KDR (h) (VEGFR2) (P35968 20-1356): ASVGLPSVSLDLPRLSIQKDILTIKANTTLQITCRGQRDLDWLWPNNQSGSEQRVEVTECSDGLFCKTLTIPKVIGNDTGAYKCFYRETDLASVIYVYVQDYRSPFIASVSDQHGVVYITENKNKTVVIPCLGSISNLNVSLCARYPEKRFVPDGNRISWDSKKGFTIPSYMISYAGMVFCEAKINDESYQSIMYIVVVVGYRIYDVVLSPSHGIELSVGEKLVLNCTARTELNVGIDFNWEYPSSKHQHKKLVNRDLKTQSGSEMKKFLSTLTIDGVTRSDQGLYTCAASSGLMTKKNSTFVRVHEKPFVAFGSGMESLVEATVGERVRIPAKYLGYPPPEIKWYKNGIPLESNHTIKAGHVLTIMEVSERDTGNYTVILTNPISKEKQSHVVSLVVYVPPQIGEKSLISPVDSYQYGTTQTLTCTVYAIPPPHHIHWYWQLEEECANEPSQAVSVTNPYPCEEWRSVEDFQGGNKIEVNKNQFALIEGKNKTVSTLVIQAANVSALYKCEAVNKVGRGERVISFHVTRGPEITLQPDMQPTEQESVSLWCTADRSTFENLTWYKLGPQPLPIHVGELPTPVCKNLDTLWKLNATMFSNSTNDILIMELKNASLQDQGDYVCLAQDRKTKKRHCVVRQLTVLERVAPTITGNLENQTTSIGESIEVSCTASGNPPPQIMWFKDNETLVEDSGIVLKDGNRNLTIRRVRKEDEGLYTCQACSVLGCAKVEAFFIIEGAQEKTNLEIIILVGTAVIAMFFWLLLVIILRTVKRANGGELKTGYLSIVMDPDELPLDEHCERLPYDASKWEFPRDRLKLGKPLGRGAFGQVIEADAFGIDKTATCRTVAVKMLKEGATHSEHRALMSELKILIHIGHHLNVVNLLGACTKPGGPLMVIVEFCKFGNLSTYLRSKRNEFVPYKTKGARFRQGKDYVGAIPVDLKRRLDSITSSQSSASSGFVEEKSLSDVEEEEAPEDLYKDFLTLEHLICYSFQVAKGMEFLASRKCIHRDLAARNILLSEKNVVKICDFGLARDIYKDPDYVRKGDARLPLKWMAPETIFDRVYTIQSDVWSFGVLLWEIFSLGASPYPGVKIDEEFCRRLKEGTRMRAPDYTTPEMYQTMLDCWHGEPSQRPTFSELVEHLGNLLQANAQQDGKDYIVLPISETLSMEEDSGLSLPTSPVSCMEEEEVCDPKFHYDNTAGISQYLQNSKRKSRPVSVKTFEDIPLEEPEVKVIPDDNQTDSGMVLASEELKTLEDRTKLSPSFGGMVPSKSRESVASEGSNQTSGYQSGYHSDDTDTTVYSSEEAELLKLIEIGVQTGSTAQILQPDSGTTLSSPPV

The compound `COc1cc(OC)cc(N(CCCNCC(F)(F)F)c2ccc3ncc(-c4ccn(C)c4)nc3c2)c1` (as salt: HCl) [Compound 5] gave a melting point of 186 °C. The same measure, in the same setting: then `COc1cc(OC)cc(N(CC2CC2)c2ccc3ncc(-n4ccnc4C)nc3c2)c1` (as salt: HCl) [Compound 32], with 223 °C; and `COc1cc(OC)cc(N(CCNC(C)C)c2ccc3ncc(C(=O)NCCN4CCOCC4)nc3c2)c1` (as salt: HCl) (hydrate or solvate) [Compound 160], with 149 °C.

`COCC(CN(c1cc(OC)cc(OC)c1)c1ccc2ncc(-c3cccnc3)nc2c1)OC(C)=O` (single isomer, unassigned) (as salt: HCl) (hydrate or solvate) [Compound 76]: the melting point was 80 °C. The same measure, in the same setting: as for `COc1cc(OC)cc(N(CCNC(C)C)c2ccc3ncc(-c4ccn[nH]4)nc3c2)c1` (as salt: HCl) [Compound 189], the figure is 145 °C; as for `COc1cc(OC)cc(N(CCNC(C)C)c2ccc3ncc(-c4ccccc4)nc3c2)c1` (as salt: HCl) (hydrate or solvate) [Compound 121], 149 °C. Still for that read-out and setting: then `COc1cc(OC)cc(N(CCCNCC(F)(F)F)c2ccc3ncc(C(=O)NCCN4CCOCC4)nc3c2)c1` (as salt: HCl) (hydrate or solvate) [Compound 158], with 138 °C. In the case of `COc1cc(OC)cc(N(CC2CC2)c2ccc3ncc(-c4ccn[nH]4)nc3c2)c1` (as salt: HCl) [Compound 58], the melting point worked out at 134 °C. Still for that read-out and setting: as for `COc1cc(OC)cc(N(CC2CC2)c2ccc3ncc(-c4ccc5c(ccn5C)c4)nc3c2)c1` (as salt: HCl) (hydrate or solvate) [Compound 20], the figure is 105 °C; as for `COc1cc(OC)cc(N(CCNC(C)C)c2ccc3ncc(-c4cccnc4)nc3c2)c1` (as salt: HCl) (hydrate or solvate) [Compound 10], 174 °C. Compound `COc1cc(OC)cc(N(CC2CC2)c2ccc3ncc(-c4ccccc4)nc3c2)c1` [Compound 119] showed a melting point of 84 °C. The “BAF3-KDR (MIN IL3) 384 well pIC50” value in data set [1] is listed as <5. Moreover, in data set [2], the IC50 was > 1000 nM. Also, the “BAF3-FLT3 (MIN IL3) 384 well pIC50” value in data set [3] is given as <5. In the case of `COc1cc(OC)cc(N(CCN2C(=O)c3ccccc3C2=O)c2ccc3ncc(-c4ccc(N)nc4)nc3c2)c1` [Compound 57], the melting point worked out at 222 °C.

Turning to `COc1cc(OC)cc(N(CCNC(C)C)c2ccc3ncc(C(=O)NCCCN4CCN(C)CC4)nc3c2)c1` (as salt: HCl) (hydrate or solvate) [Compound 159], the melting point is 176 °C. Consider `COc1cc(OC)cc(N(CCNC(C)C)c2ccc3ncc(C(=O)N4CCOCC4)nc3c2)c1` (as salt: HCl) (hydrate or solvate) [Compound 181], for which the melting point came out at 255 °C. On to `COc1cc(OC)cc(N(CCNC(C)C)c2ccc3ncc(C(=O)N4CCN(C)CC4)nc3c2)c1` (as salt: HCl) (hydrate or solvate) [Compound 179], for which the melting point turned out to be 250 °C.

The compound `COc1cc(OC)cc(N(CCNC(C)C)c2ccc3ncc(-c4ccnc(C(=O)NCCCN)c4)nc3c2)c1` (as salt: HCl) (hydrate or solvate) [Compound 146] registered a melting point of 188 °C. In turn, `COc1cc(OC)cc(N(CCNC(C)C)c2ccc3ncc(NCC4CCNCC4)nc3c2)c1` (as salt: HCl) (hydrate or solvate) [Compound 161] had a melting point of 185 °C. On the same count and under the same terms, as for `COc1cc(OC)cc(N(Cc2cccc(CN)n2)c2ccc3ncc(-c4ccc(N)nc4)nc3c2)c1` (as salt: HCl) [Compound 51], the figure is 170 °C; as for `COc1cc(OC)cc(N(CCNC(C)C)c2ccc3ncc(C(=O)N4CCCCC4)nc3c2)c1` (as salt: HCl) (hydrate or solvate) [Compound 180], 236 °C; as for `COc1cc(OC)cc(N(CCNC(C)C)c2ccc3ncc(-c4ccn(C)c4)nc3c2)c1` (as salt: HCl) [Compound 8], 200 °C. In turn, `COc1cc(OC)cc(N(CCNC(C)C)c2ccc3ncc(N4CCC(CN)CC4)nc3c2)c1` (as salt: HCl) (hydrate or solvate) [Compound 67] yielded a melting point of 193 °C. Same read-out and setting: as for `COc1cc(OC)cc(N(CCNC(C)C)c2ccc3ncc(-n4cnc(CO)c4)nc3c2)c1` (as salt: HCl) (hydrate or solvate) [Compound 77], the figure is 150 °C.
